Experimental data published in patent US20240285596A1, “SOLID DOSAGE FORMS AND DOSING REGIMENS COMPRISING (2R,3S,4S,5R)-4-[[3-(3,4-DIFLUORO-2-METHOXY-PHENYL)-4,5-DIMETHYL-5-(TRIFLUOROMETHYL) TETRAHYDROFURAN-2-CARBONYL]AMINO]PYRIDINE-2-CARBOXAMIDE” (VERTEX PHARMACEUTICALS INCORPORATED, priority 2021, published 2024).
pIC50: −log10 of the molar value.

Key:
[1] = tested on: subjects with pain following bunionectomy; assay: Randomized, double-blind, placebo-controlled study of efficacy and safety in subjects with pain following bunionectomy; settings: for Mean SPID48: oral, NPRS 0-48 h
From the text: Bunionectomy is a well-established, multi-dose, surgical, acute pain model. A randomized, double-blind study design was used to avoid observer bias and reduce symptoms or outcomes arising from the subjects' knowledge of treatment.
Male and female patients between the ages of 18 and 75 years (inclusive) with pain that is ≥4 on an 11-point Numeric Pain Rating Scale (NPRS) and is moderate or severe on the Verbal Categorical Rating Scale (VRS) after bunionectomy are included in the study.
The investigational drug was administered orally in 10 mg tablets. […] The investigational drug was administered every 12 hours (q12 h). A low, mid, and high dosing regime were tested. The first dose in the low dosing regime was 20 mg, and the subsequent doses were 10 mg g12 h. The first dose in the mid dosing regime was 60 mg, and the subsequent doses were 30 mg g12 h. The first dose in the high dosing regime was 100 mg, and the subsequent doses were 50 mg g12 h.
After a screening period, subjects receive a primary unilateral first metatarsal bunionectomy repair on Day minus one under regional anesthesia (Mayo and popliteal block). A continuous popliteal sciatic block infusion (0.2% ropivacaine) is started after surgery, and remains in place until approximately 3 AM on Day 1. After removal of the popliteal sciatic block, each subject is randomized when the subject requests the first dose of study drug for pain relief and reports pain ≥4 on the NPRS and moderate or severe pain on the VRS.
Randomization was stratified by site and baseline NPRS (<8 versus ≥8). To maintain the blind, all subjects receive the same number of capsules in a double-dummy design.
HB/APAP placebo capsules were administered every 6 hours (q6 h).
The final dose of HB/APAP was given 42 hours after the first dose.
11-point (0 to 10) Numeric Pain Rating Scale: NPRS scores are frequently used in bunionectomy studies and are recognized by the FDA as a valid pain intensity measure. On the 11-point NPRS, a score of 0 denotes no pain, and a score of 10 denotes the worst pain intensity imaginable. Subjects reported their pain on the 11-point NPRS immediately before their first dose of the study drug (baseline NPRS score) and at intervals over 48 hour period (i.e. 0.5, 1, 1.5, 2, 3, 4, 5, 6, 8, 12, 16, 20, 24, 28, 32, 36, 40, 44, and 48 hours (±5 minutes)) after the first dose of the study drug. Pain intensity is also recorded on the NPRS immediately before each administration of rescue medication. Pain intensity scores that are collected within 4 hours after a dose of rescue medication are deemed missing, and the missing values are imputed as the intensity recorded immediately before the administration of rescue medication.
SPID-48 is the sum of the pain intensity difference (PID) over the 48 hour time period. A pain intensity score of 0 (no pain) to 10 (worse possible pain) is obtained before starting the study and throughout the 48 time period. The pain score at each assessment time is subtracted from the baseline pain score to provide the total sum score or SPID-48. A higher SPID-48 is better and indicates a reduction in pain intensity compared to the baseline score.
4-point Verbal Categorical Rating Scale: Subjects report their pain on the 4-point VRS (none, mild, moderate, or severe) immediately before their first dose of the study drug (baseline VRS).
Safety evaluations include adverse events, clinical laboratory assessments, clinical evaluation of vital signs, electrocardiograms, and physical examinations.

[2] = tested on: patients undergoing abdominoplasty; assay: Study in patients undergoing abdominoplasty (NCT05034952); type: in vivo, human
human NaV 1.8 = human NaV 1.8 (Homo sapiens, UniProt Q9Y5Y9); assay: E-VIPR assay detecting and measuring NaV inhibition properties; type: cell-based; settings: HEK cells expressing a truncated form of human NaV 1.8; E-VIPR membrane potential readout
Sequence of human NaV 1.8 (Q9Y5Y9 126-1722 limits assumed): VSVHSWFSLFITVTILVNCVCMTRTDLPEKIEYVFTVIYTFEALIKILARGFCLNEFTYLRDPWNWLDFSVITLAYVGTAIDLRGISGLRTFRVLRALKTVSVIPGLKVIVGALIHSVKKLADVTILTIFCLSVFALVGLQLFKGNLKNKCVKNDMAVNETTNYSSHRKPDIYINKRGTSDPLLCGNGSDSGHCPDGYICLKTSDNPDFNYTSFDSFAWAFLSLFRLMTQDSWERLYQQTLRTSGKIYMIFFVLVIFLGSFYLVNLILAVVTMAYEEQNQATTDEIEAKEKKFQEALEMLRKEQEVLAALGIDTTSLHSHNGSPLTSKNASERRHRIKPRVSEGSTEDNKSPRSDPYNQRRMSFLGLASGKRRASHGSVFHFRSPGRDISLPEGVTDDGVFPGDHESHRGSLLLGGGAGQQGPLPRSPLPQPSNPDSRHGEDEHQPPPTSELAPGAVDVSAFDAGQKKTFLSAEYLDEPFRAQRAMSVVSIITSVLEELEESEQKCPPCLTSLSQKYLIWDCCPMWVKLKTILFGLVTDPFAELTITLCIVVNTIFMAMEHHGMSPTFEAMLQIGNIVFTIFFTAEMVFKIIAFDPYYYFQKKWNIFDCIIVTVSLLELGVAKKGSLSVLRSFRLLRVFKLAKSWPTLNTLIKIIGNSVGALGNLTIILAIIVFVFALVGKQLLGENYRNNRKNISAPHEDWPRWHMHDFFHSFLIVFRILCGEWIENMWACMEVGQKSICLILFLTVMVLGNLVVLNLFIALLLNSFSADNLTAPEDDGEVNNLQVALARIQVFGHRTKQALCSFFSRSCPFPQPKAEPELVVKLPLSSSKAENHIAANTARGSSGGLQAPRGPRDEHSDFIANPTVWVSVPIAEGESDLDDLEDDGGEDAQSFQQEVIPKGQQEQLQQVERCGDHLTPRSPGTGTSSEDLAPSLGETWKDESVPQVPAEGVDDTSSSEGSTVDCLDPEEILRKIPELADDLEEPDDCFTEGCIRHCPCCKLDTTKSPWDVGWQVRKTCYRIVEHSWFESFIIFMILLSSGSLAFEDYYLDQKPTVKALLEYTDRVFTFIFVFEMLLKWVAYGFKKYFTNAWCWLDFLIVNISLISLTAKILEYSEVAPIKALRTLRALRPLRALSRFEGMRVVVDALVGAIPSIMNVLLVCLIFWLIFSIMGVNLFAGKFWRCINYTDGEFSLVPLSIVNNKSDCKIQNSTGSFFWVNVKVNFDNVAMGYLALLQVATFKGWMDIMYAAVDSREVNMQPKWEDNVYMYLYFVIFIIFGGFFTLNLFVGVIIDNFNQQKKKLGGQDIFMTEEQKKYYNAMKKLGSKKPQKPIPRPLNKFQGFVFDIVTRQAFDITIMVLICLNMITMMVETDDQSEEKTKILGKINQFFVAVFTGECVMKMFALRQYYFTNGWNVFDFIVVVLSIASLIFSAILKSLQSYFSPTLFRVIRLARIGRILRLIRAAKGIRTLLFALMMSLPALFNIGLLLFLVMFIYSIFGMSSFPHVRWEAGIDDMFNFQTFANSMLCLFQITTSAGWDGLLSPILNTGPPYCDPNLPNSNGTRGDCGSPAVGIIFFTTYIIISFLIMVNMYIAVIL
From the text: Sodium ion channels are voltage-dependent proteins that can be activated by inducing membrane voltage changes by applying electric fields. The electrical stimulation instrument and methods of use, referred to as E-VIPR, are described in International Publication No. WO 2002/008748 A3 and C.-J. Huang et al. Characterization of voltage-gated sodium channel blockers by electrical stimulation and fluorescence detection of membrane potential, 24 Nature Biotech. 439-46 (2006), both of which are incorporated by reference in their entirety. The instrument comprises a microtiter plate handler, an optical system for exciting the coumarin dye while simultaneously recording the coumarin and oxonol emissions, a waveform generator, a current- or voltage-controlled amplifier, and parallel electrode pairs that are inserted into assay plate wells. […]
5 mM DiSBAC6(3), a voltage sensitive oxonol acceptor (CAS number 169211-44-3; 5-[3-(1,3-dihexylhexahydro-4,6-dioxo-2-thioxo-5-pyrimidinyl)-2-propen-1-ylidene]-1,3-dihexyldihydro-2-thioxo-4,6(1H,5H)-pyrimidinedione), in dry DMSO. The preparation of DiSBAC6(3) is analogous to that of DiSBAC4(3) as described in Voltage Sensing by Fluorescence Resonance Energy Transfer in Single Cells, Gonzalez, J. E. and Tsien, R. Y. (1995) Biophys. […]

[3] = High-dose: 100 mg first dose/50 mg every 12 hours, n = 60
[4] = Low-dose: 20 mg first dose/10 mg every 12 hours, n = 33
[5] = Mid-dose: 60 mg first dose/30 mg every 12 hours, n = 62

For `COc1c([C@H]2[C@H](C(=O)Nc3ccnc(C(N)=O)c3)O[C@@](C)(C(F)(F)F)[C@H]2C)ccc(F)c1F` (single isomer, unassigned) [Compound 1], the “Mean SPID48” value [1, 3] was 137.8, the “Mean SPID48 difference from placebo” value [1, 3] was 36.8 and the “Mean SPID48” value [1, 4] was 112.9. The “Mean SPID48 difference from placebo” value [1, 4] was 11.9, the “Mean SPID48” value [1, 5] was 86.9 and the “Mean SPID48 difference from placebo” value [1, 5] was −14.1. The Onset of action ([1]; bunionectomy study) was “rapid and was sustained through the duration of assessment”, the “SPID48 compared to placebo (primary endpoint), in words” value ([1]; high dose, recorded on NPRS) was “statistically significant improvement” and the “SPID48, in words” value [2] was “statistically significant improvement”. It also gave a pIC50 (human NaV 1.8) of over 8.00.
